In publication PMC4912613, “A broad analysis of resistance development in the malaria parasite” (Nature Communications, 2016):
Where two headings read alike, the source gives them in different places.

Tests used:
[1] = system: ATQ-R5 (cytb F267V, parent 3D7); assay: Cross-resistance EC50 assay, ATQ-R5; assay type: cell-based, Plasmodium falciparum; conditions: Plasmodium falciparum, 3D7; SYBR green 72 hour assay; asynchronized parasites; 96-well or 1536-well format; ATQ-R5
Text: (§1) To evaluate potential overlapping activity against known antimalarial drug targets, we performed dose-response studies with each compound against our assembled set of drug-resistant lines and their corresponding parents, in an asexual blood stage proliferation assay (Table 1). Comparisons were made to the drug-sensitive strain 3D7 when a parent was unavailable (TM90C2A, W2 and Dd2). As laboratories conducted EC50 assays with different strains and protocols, all comparisons were made between assays from the same laboratory and under the same assay conditions. Compounds displaying >5-fold EC50 shifts relative to the parent or sensitive strain were flagged as having potentially non-novel targets. Average fold shifts per strain ranged from 0.82 to 2.34, with a median of 1.23 indicating there was not common resistance to any one resistant clone. No resistance patterns were observed when classifying the compounds based on chemical structure, but this was not surprising given the diversity of compounds chosen. On the other hand, given that these confirmed compounds were derived from larger unconfirmed hit lists to which some filtration criteria may have been applied (for example, elimination of obvious dihydrofolate reductase inhibitors[32]), some[10][11][12][13] pre-existing bias may exist in the set. […]
(§2) Alternatively, a SYBR Green-based proliferation approach was used for the 72-h assay, as previously described. Briefly, a culture of either synchronized or asynchronous parasitized RBCs (0.3% parasitemia and 4% haematocrit) in screening medium (identical to supplemented medium above except no serum was added) was exposed to serial drug dilutions. Plates were incubated at 37 °C and gassed with 93% N2, 4% CO2 and 3% O2 for 72 h. Following incubation, 10 × SYBR Green I (Invitrogen; supplied in 10,000 × concentration) in lysis buffer ([…], 5 mM EDTA, 0.16% Saponin wt per vol and 1.6% Triton X vol per vol) was added to the wells and the plates were incubated overnight at room temperature before plate reading. EC50 assays were repeated three times, taking the average EC50 value from each assay set, and removing any outliers using a single iteration of Grubbs' test, eliminating values with z-scores above the critical z-value (α=0.05). The raw EC50 values for synchronized parasites assayed in a 384-well format are listed in Supplementary Data 4. The raw EC50 values for asynchronous parasites assayed in a 96 or 1536-well format are listed in Supplementary Data 5.
(§3) EC50 values for each strain were compared with those of the corresponding parent strain to determine fold-shift changes and identify resistance. To minimize the cause variance between assays, all comparisons were conducted between strains assayed under identical conditions. A one-way ANOVA followed by a Dunnet's post-test was conducted in GraphPad Prism to identify significant changes between the parent and resistant strain.

[2] = system: P. falciparum 3D7, Dd2, Dd2Δexo; assay: In vitro evolution of compound-resistant lines (selection); assay type: cell-based, Plasmodium falciparum; conditions: for Time Length to Obtain Mutants: in vitro selection; for # of Resistant Strains Generated: resistant cultures out of three independent cultures; for EC50 fold shifts observed: selected parasites vs selection parent
Text: While we found an overall lack of pre-existing resistance, analysing the onset of resistance was critical, as compounds resulting in rapid resistance are not ideal for clinical development. We therefore sought to create drug-resistant parasites using a variety of different selection methods. We implemented either a high-dose method or a ramp-up/pulse method for our in vitro selections. Two of the 50 compounds—MMV028895 and MMV665824—were removed from the selection study during experimentation. […] Out of the remaining 48 compounds, resistant parasites were obtained for 23 (Supplementary Data 1). As each selection was performed in triplicate with three independent cultures, we succeeded in generating a total of 66 resistant cultures. Parasites resistant to MMV026596 were not obtained despite 100 days of selection, but the cultures acquired hypersensitivity to mefloquine with a 10-fold reduction in EC50 compared with its parental line, 3D7. For the remaining 24 compounds, acquisition of resistant parasites was unsuccessful despite numerous attempts over an extensive period of time.
Based on the compound speed of action and lab specialty, selections were conducted using a high-pressure intermittent selection method, a step-wise selection method, or a constant selection method. For high-pressure selections, ∼1–2 × 10^9 parasites were treated at a concentration of 3–10 × EC50 until parasites could not be seen by microscopy (4–10 days). Following treatment, compound pressure was removed and cultures were allowed to recover. Once healthy parasites were seen and parasitemia reached ∼2%, compound pressure was reinstated. For step-wise selections, ∼1 × 10^8 parasites were treated at a starting concentration resulting in a reduced growth rate of 50%. Cultures were examined daily by microscopy, increasing compound concentration in increments of 5–10% as needed to maintain a 50% reduced growth rate. Selections were carried out until cultures achieved a reproducible EC50 fold shift of >3 × . Finally, constant selections were conducted in a similar manner to the high-pressure intermittent method with the exception that compound pressure was never removed. Following successful selection, cultures were cloned out using a limiting dilution method as previously described. Selections were terminated after 200 days if resistance could not be obtained.

[3] = system: CYTbQi (cytb G33A, parent Dd2); assay: Cross-resistance EC50 assay, CYTbQi; assay type: cell-based; conditions: Plasmodium falciparum, SYBR green 72 hour assay, synchronized parasites, 384-well format
Text: as §1, §2, §3

PfCRT-Q352R (parent Dd2) = assay: Cross-resistance EC50 assay, PfCRT-Q352R; assay type: cell-based; conditions: Plasmodium falciparum, DD2, 72 h, read-out: PfCRT:Q352R (Dd2 Parent) Average EC50
Text: as §1, §2, §3

Dd2 = assay: Cross-resistance EC50 assay, Dd2 parent; assay type: cell-based, Plasmodium falciparum; conditions: for EC50: Plasmodium falciparum, DD2, 72 h
Text: Multidrug resistance alleles, including mutations in P. falciparum chloroquine resistance transporter (pfcrt) and P. falciparum multi-drug resistance transporter 1 (pfmdr1) are very common in field isolates. Therefore, we sought to assess the degree to which pre-existing resistance alleles would contribute to a loss of potency for this diverse collection of small molecule compounds. Fifteen clones derived from three main parent lines were chosen to maximize diversity in mutated pathways and genetic backgrounds, thus representing the variety of resistance seen in the field: 3D7 (ref. [23]), W2 (ref. [24]) or Dd2 (ref. [25]). The 3D7 line originates from the clone of a Netherlands clinical isolate strain[23][26] and is generally considered to be drug sensitive, though it does convey resistance to sulfadoxine. Conversely, W2 (ref. [24], [27]) and Dd2 (ref. [25]) are multi-drug-resistant lines originating from the Indochina III/CDC isolate, which contain point mutations in pfcrt as well as amplifications in pfmdr1 and GTP cyclohydrolase.
as §1, §2, §3

[4] = system: GNF156R (PfCARL L830V, S1076I and M81I, parent Dd2); assay: Cross-resistance EC50 assay, GNF156R; assay type: cell-based; conditions: Plasmodium falciparum, SYBR green 72 hour assay, asynchronized parasites, 96-well or 1536-well format
Text: as §1, §2, §3

[5] = read-out: Dd2 (PARENT) Average EC50
[6] = read-out: Dd2 (PARENT) EC50 (µM) Average EC50

| SMILES | EC50 [1] [µM] | Time Length to Obtain Mutants [2] | # of Resistant Strains Generated [2] | EC50 fold shifts observed [2] | EC50 ([3]; strain CYTbQi (Dd2 parent)) [nM] | EC50 (PfCRT-Q352R (parent Dd2)) [nM] | EC50 (Dd2; [5]) [µM] | EC50 (Dd2; [6]) [µM] | EC50 [4] [µM] | EC50 fold-shift, Dd2 compared with 3D7 (Dd2; loss of efficacy) [×] | EC50 ([3]; DD2, CYTbQi strain) [nM] |
| --- | --- | --- | --- | --- | --- | --- | --- | --- | --- | --- | --- |
| OC(CNC1CCCCC1)Cn1c2ccc(I)cc2c2cc(I)ccc21 (stereo not drawn) [MMV665882] | 0.026 | LONG (> 125 days) | 3/3 | 2-3x | 25 | 47 | 0.05 | 0.038 | 0.068 | – | – |
| COCCNCC(O)Cn1c2ccc(Cl)cc2c2cc(Cl)ccc21 (stereo not drawn) [MMV019017] | 0.842 | LONG (> 125 days) | 0/3 | no shift | 549 | 582 | 0.477 | 0.998 | 0.336 | – | – |
| COc1cc(-c2nc(-c3ccccc3)c(-c3ccccc3)[nH]2)cc(OC)c1O [MMV020750] | 0.873 | LONG (> 125 days) | 0/3 | no shift | 927 | 725 | 0.678 | 0.773 | 0.663 | – | – |
| CCCN(CCC)CC(O)COc1ccccc1C(=O)Nc1ccccc1 (stereo not drawn) [MMV006455] | 0.548 | LONG (> 125 days) | 0/3 | no shift | 200 | 1220 | 1.21 | 0.408 | 0.083 | – | – |
| O=C(NCC(CCCN1CCC(c2c[nH]c3ccccc23)CC1)c1ccccc1)Nc1ccc(Cl)c(Cl)c1 (stereo not drawn) [MMV029272] | 4.49 | LONG (> 125 days) | 3/3 | 6-9x | 619 | 267 | 0.824 | 0.285 | 0.332 | – | – |
| CC(NCc1ccccc1)c1cc(Cl)ccc1O (stereo not drawn) [MMV665789] | 0.29 | MODERATE (50-125 days) | 2/3 | 3-7x | 674 | 571 | 0.482 | 0.333 | 0.681 | – | – |
| FC(F)(F)c1cccc(Nc2nc3ccccc3nc2Nc2cccc(C(F)(F)F)c2)c1 [MMV665794] | 0.381 | SHORT (0-50 days) | 0/3 | no shift | 128 | 116 | 0.113 | 0.199 | 0.135 | – | – |
| O=C(Nc1ccccc1O)c1ccc(Oc2cccc(C(=O)Nc3ccccc3O)c2)cc1 [MMV665888] | 0.989 | LONG (> 125 days) | 0/3 | no shift | 601 | 683 | 0.623 | 0.66 | 0.67 | – | – |
| Nc1ccc(-c2nc3cc(Cc4ccc5[nH]c(-c6ccc(N)cc6)nc5c4)ccc3[nH]2)cc1 [MMV665943] | 0.042 | SHORT (0-50 days) | 0/3 | no shift | 450 | 407 | 0.412 | 0.488 | 0.399 | – | – |
| COc1cc(C(=O)ON=C(N)Cc2cccc3ccccc23)cc(OC)c1OC [MMV666687] | 0.914 | LONG (> 125 days) | 0/3 | no shift | 588 | 326 | 0.314 | 0.87 | 0.611 | – | – |
| CCCOCc1cc(CN2CCN(c3cccc(Cl)c3)CC2)c(O)c2ncccc12 [MMV000787] | 1.43 | LONG (> 125 days) | 0/3 | no shift | 520 | 699 | 0.588 | 1.59 | 1.63 | – | – |
| Cc1ccc(Cn2c(N3CCC(C(=O)NCc4cccs4)CC3)nc3ccccc32)cc1 [MMV007564] | 1.33 | SHORT (0-50 days) | 3/3 | 7-12x | 574 | 430 | 0.392 | 0.342 | 1.62 | – | – |
| Nc1ccc(-c2nc3cc(Oc4ccc(Oc5ccc6[nH]c(-c7ccc(N)cc7)nc6c5)cc4)ccc3[nH]2)cc1 [MMV011895] | 0.525 | LONG (> 125 days) | 2/3 | 2-4x | 267 | 206 | 0.259 | 0.431 | 0.126 | – | – |
| CN(C)CCCN(C)C(=O)C1Cc2cc(-c3ccccc3)ccc2N1S(=O)(=O)c1ccccc1 (stereo not drawn) [MMV028895] | 0.879 | – | – | – | 740 | 240 | 0.349 | 6.01 | 3.92 | 7.1 | – |
| COc1ccc2c3c([nH]c2c1)[C@H](CO)N(C(C)=O)CC31CCN(C(=O)Nc2ccccc2F)CC1 [MMV673482] | 0.025 | SHORT (0-50 days) | 2/3 | 7-18x | – | 71 | 0.07 | 0.005 | – | – | 84 |
